Results reported in patent US9962341B2, “Active pharmaceutical ingredient (API) comprising cannabinoids for use in the treatment of cancer” (GW Pharma Limited, priority 2014, dated 2018).
Where two headings read alike, the source gives them in different places.

Tests used:
[1] = system: SKBR3; assay: Cell viability (CellTiter-Blue, 72 h), SKBR3 breast cancer cells; type: cell-based; conditions: for IC50: Homo sapiens; for effect (but only 50% effect): extent of effect reached
Protocol: (§1) The cell lines tested in this Example were as follows. Breast cancer: MDA-MB-231; SK-BR3; and BT474. Liver cancer: HepG2.
(§2) The phytocannabinoids were tested alone and in various ratioed combinations in media containing final concentrations of 10% and 1% foetal bovine serum at 72 h for the breast and prostate cancer lines and 1% foetal bovine serum for the liver cancer line HepG2.
(§3) Each tumour cell line was maintained in vitro in RPMI 1640+10% heat inactivated FBS and 2 mM L-glutamine (growth media) at 37° C. in 5% CO2 and humidified conditions. The cells were harvested, washed, re-suspended into growth medium and counted. The cells were re-suspended into assay media (RPMI 1640+5% heat inactivated FBS+ and 2 mM L-glutamine) at 8×104-2×10^5 cells/ml (dependent upon cell type) and plated into the middle 240 wells of 384 well tissue culture plates (Corning CellBind, black-wall plates) 12.5 μl/well aliquots; 62.5 μl of growth media was aliquoted into the outer wells. There were 4 plates for each cell line. The plates were incubated overnight at 37° C., in 5% humidified CO2.
(§4) The phytocannabinoid test compounds were prepared in 100% DMSO vehicle at a stock concentration of 10 mM.
(§5) Starting with the 10 mM stock, the compounds were diluted to 125 μM in FBS-free growth media.
(§6) These were diluted in FBS-free growth media to 125 μM before serial dilution.
(§7) 5 volumes of CBD 10 mM stock was added to 1 volume of the other agent (also at 10 mM) and 4 volumes of DMSO. This made a final concentration of 5 mM:1 mM. This was then diluted in FBS-free growth media so the top concentration of CBD would be 125 μM (before serial dilution). Each compound and compound combination stock was serially diluted in FBS-free growth media (containing 1.25% v/v DMSO) from 125 μM to 41.7, 13.89, 4.63, 1.54, 0.514, 0.171, 0.057 and 0.019 μM (1.25× final assay concentrations). Vehicle was prepared at equivalent dilutions in assay media. The top final concentration of compound in the assay was always 100 μM so CBD5:1CBG was 100 μM CBD and 20 μM CBG.
(§8) Taxotere SOC was prepared at a stock concentration of 1 mM in 100% DMSO. Taxotere was serially diluted from the stock solution into FBS-free growth media to 12.5 μM, then serially diluted in FBS-free growth media containing 1.25% DMSO to 4.17, 1.39, 0.46, 0.154, 0.051, 0.017, 0.006, 0.002 μM (1.25× final assay concentrations).
(§9) This was then serially diluted in FBS-free growth media to 0.417, 0.139, 0.046, 0.0154, 0.0051, 0.0017, 0.0006, 0.0002 μM (1.25× final assay concentrations). This was plated as a positive control for the SKBR3 & BT474 cell lines. 50 μl per well of compound/vehicle dilutions was added to the plates in replicates of 6. Where applicable total volume in the well was made up to 62.5 μl with assay media.
(§10) The plates were incubated for 72 h at 37° C. in 5% humidified CO2. To develop the plates, at 72 h, 10 μl of CellTiter-Blue™ reagent was added to each test/blank well. The plates were incubated at 37° C., 5% humidified CO2. Fluorescence was measured using a Flex II Station plate reader (570 nm excitation wavelength, 600 nm emission wavelength, 590 nm cut-off) after 3 h.
(§11) The experimental conditions were the same as the experiment above, with the same compound dilutions and volumes for plating but using growth media containing 10% FBS rather than FBS-free media.
(§12) The raw data values expressed in relative fluorescent units were normalised to the vehicle for each individual plate and any reduction in fluorescence indicated a decrease in viability.
(§13) The data were analysed in GraphPad PRISM using a non-linear sigmoidal plot with variable slope (asymmetric five point linear regression) and where possible an IC50 value for each single compound and combination was generated.
(§14) For the calculation, raw data values expressed in relative fluorescent units were normalised to the vehicle for each individual plate (set as 0%) and the reduction in fluorescence calculated as an increase in inhibition of viability.

[2] = system: BT474; assay: Cell viability (CellTiter-Blue, 72 h), phytocannabinoids alone and in combination, BT474 breast cancer cells; type: cell-based; conditions: for IC50: Homo sapiens; for effect (but only 50% effect): extent of effect reached
Protocol: as §1, §2, §3, §4, §5, §6, §7, §8, §9, §10, §11, §12, §13, §14

[3] = SK-BR-3, 72 h, read-out: IC50 values, SKBR3, 1% FBS, 72 h
[4] = SK-BR-3, 72 h, read-out: IC50 values, SKBR3, 10% FBS, 72 h
[5] = SK-BR-3, read-out: Dm (median effect dose), SKBR3, 1% FBS, Calcusyn median-effect analysis
[6] = BT-474, 72 h, BT474, 1% FBS, 72 h, read-out: IC50 values
[7] = BT-474, 72 h, BT474, 10% FBS, 72 h, read-out: IC50 values
[8] = BT-474, BT474, 1% FBS, Calcusyn median-effect analysis, read-out: Dm (median effect dose)

In the case of `C=C(C)[C@@H]1CCC(C)=C[C@H]1c1c(O)cc(CCCCC)cc1O` [CBD, Cannabidiol], the IC50 [1, 3] is reported as 4 µM, the IC50 [1, 4] is reported as 23 µM and the IC50 [1, 5] is reported as 9.31 µM. The IC50 [2, 6] was 8 µM, the IC50 [2, 7] was 28 µM and the IC50 [2, 8] was 16.9 µM.

`C=C(C)[C@@H]1CCC(C)=C[C@H]1c1c(O)cc(CCCCC)c(C(=O)O)c1O` [CBDA, Cannabidiolic acid] gave an IC50 [1, 3] of 14.5 µM, an IC50 [1, 4] of about 100 µM and an IC50 [1, 5] of 30 µM. For the same compound, the IC50 [2, 6] was 21.8 µM, the IC50 [2, 7] was over 100 µM and the IC50 [2, 8] was 43.3 µM.

`CCCCCc1cc(O)c(C/C=C(\C)CCC=C(C)C)c(O)c1` [CBG, Cannabigerol] gave an IC50 [1, 3] of 4 µM, an IC50 [1, 4] of 33 µM and an IC50 [1, 5] of 8.55 µM. For the same compound, the IC50 [2, 6] was 7.9 µM, the IC50 [2, 7] was 37 µM and the IC50 [2, 8] was 14.8 µM.

Compound `CCCCCc1cc(O)c(C/C=C(\C)CCC=C(C)C)c(O)c1C(=O)O` [CBGA, Cannabigerolic acid] has an IC50 [1, 3] of 10.6 µM, an IC50 [1, 4] of over 100 µM and an IC50 [1, 5] of 16.8 µM. It also gave an IC50 [2, 6] of 24.8 µM, an IC50 [2, 7] of about 100 µM and an IC50 [2, 8] of 27.9 µM.

With `CCCc1cc(O)c2c(c1)OC(C)(C)[C@@H]1CCC(C)=C[C@@H]21` [THCV, Tetrahydrocannabivarin] the IC50 [1, 3] was 10.8 µM, the IC50 [1, 4] was 30 µM and the IC50 [1, 5] was 18.3 µM. For the same compound, the IC50 [2, 6] was 13.3 µM, the IC50 [2, 7] was 31 µM and the IC50 [2, 8] was 20.3 µM.

With `CC(=O)O[C@@]12CO[C@@H]1C[C@H](O)[C@@]1(C)C(=O)[C@H](O)C3=C(C)[C@@H](OC(=O)[C@H](O)[C@@H](NC(=O)OC(C)(C)C)c4ccccc4)C[C@@](O)([C@@H](OC(=O)c4ccccc4)[C@H]21)C3(C)C` [Taxotere, Docetaxel, reference compound] the IC50 [1, 3] was under 0.001 µM, the IC50 [1, 4] was under 0.001 µM and the “effect (but only 50% effect)” value ([1]; SKBR3, 1% FBS) was “only 50%”. For the same compound, the “effect (but only 50% effect)” value ([1]; SKBR3, 10% FBS) was 50% effect), the “effect (but only 50% effect)” value ([2]; BT474, 1% FBS) was “only 50%” and the “effect (but only 50% effect)” value ([2]; BT474, 10% FBS) was 50% effect). The IC50 [2, 6] was under 0.001 µM and the IC50 [2, 7] was under 0.001 µM.
